Calls of active or inactive are those of the source. No cut-off for these calls is given here.
Tests used:
Pancreatic acinar cell [1] = experiment: (§1) Cytoprotective activity against sodium taurocholate-induced necrosis in Balb/C mouse pancreatic acinar cells at 0.5 mM after 40 mins by propidium iodide/Hoechst 33342 staining-based fluorescence microscopic method; type: functional
Pancreatic acinar cell [2] = experiment: Cytoprotective activity against sodium taurocholate-induced necrosis in Balb/C mouse pancreatic acinar cells at 5 mM after 40 mins by propidium iodide/Hoechst 33342 staining-based fluorescence microscopic method; type: functional
[3] = Cytoprotective activity against sodium taurocholate-induced necrosis in Balb/C mouse pancreatic acinar cells assessed as decrease in intracellular reactive oxygen species generation at 0.5 mM measured for 20 mins by H2-DCFDA probe-based fluorescence assay relative to control; type: functional, Pancreatic acinar cell; parameters: scale not given: the % may be the effect or the level left
[4] = as §1; type: functional, Pancreatic acinar cell
Pancreatic acinar cell [5] = experiment: Cytoprotective activity against sodium taurocholate-induced necrosis in Balb/C mouse pancreatic acinar cells at 1 mM after 40 mins by propidium iodide/Hoechst 33342 staining-based fluorescence microscopic method; type: functional
[6] = Cytoprotective activity against sodium taurocholate-induced necrosis in Balb/C mouse pancreatic acinar cells assessed as intracellular ATP production at 0.5 mM measured at 20 mins by luminescence assay (reference value: 39.9%); type: functional, Pancreatic acinar cell
[7] = Cytotoxicity against Balb/C mouse pancreatic acinar cells at 1 mM after 40 mins by propidium iodide/Hoechst 33342 staining-based fluorescence microscopic method; conditions: pancreatic acinar cell, 1000 µM
[8] = Cytoprotective activity against sodium taurocholate-induced necrosis in Balb/C mouse pancreatic acinar cells assessed as intracellular ATP production at 0.5 mM measured at 40 mins by luminescence assay (reference value: 21.5%); type: functional, Pancreatic acinar cell

Row | SMILES | Activity (Pancreatic acinar cell [1]) | also measured
1 | COc1cc(CC[C@@H](O)C[C@H](O)CCc2ccc(O)c(OC)c2)ccc1O | Active | –
2 | Cn1c(=O)c2c(ncn2C)n(C)c1=O | – | Activity (Pancreatic acinar cell [2]): Active
3 | Oc1ccc(CC[C@@H](O)C[C@H](O)CCc2ccc(O)cc2)cc1 | Active | –
4 | COc1cc(O)cc(CCc2ccc(OC)c(O)c2)c1 | inactive | –
5 | COc1ccc2c(c1O)-c1c(cc(O)cc1OC)CC2 | inactive | –
6 | COc1ccc(CCc2cc(O)c(OC)c(O)c2)cc1 | inactive | –
7 | COc1cc(CC[C@@H](O)C[C@H](O)CCc2ccc(O)cc2)ccc1O | Active | –
8 | COc1c(O)cc(CCc2ccccc2)cc1O | inactive | –
9 | Oc1ccc(CC[C@@H](O)C[C@H](O)CCc2ccc(O)c(O)c2)cc1 | – | Activity [3]: 27.9%; Activity [4]: 19%; Activity (Pancreatic acinar cell [5]): inactive; Activity [6]: 59.4%; Activity [7]: Toxic; Activity [8]: 38.3%
